Broadly, the pIC50 is the IC50 on a negative log10 scale, so that one unit is a factor of ten. A high value points to a small IC50.

Experimental findings from patent US9296757B2, “Substituted benzothienopyrimidines” (BAYER PHARMA AKTIENGESELLSCHAFT, priority 2012, dated 2016) are described below.

pIC50: −log10 of the molar value.

Chain of human full-length MKNK1 (Q9BUB5 other isoform, or with tags, fused parts or gaps T344D): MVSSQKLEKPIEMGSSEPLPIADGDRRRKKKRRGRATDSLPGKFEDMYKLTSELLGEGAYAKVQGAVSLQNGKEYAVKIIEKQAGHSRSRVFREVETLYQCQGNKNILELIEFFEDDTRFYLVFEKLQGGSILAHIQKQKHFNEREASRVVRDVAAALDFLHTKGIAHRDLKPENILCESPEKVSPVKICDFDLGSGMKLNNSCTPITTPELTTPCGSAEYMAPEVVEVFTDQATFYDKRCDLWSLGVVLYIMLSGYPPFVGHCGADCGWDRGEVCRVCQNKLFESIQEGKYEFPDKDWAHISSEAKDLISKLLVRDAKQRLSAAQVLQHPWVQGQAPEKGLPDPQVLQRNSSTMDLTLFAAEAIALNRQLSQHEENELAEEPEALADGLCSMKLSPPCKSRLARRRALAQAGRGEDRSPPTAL

The assay has as its target human full-length MKNK1 (Homo sapiens (Human), UniProt Q9BUB5, T344D). The assay can be described thus: MKNK1 kinase high ATP assay (TR-FRET). The format is biochemical. The settings on record: high ATP (2 mM final), 15 min preincubation with enzyme. Here is the method:
MKNK1-inhibitory activity at high ATP of compounds of the present invention after their preincubation with MKNK1 was quantified employing the TR-FRET-based MKNK1 high ATP assay as described in the following paragraphs.
A recombinant fusion protein of Glutathione-S-Transferase (GST, N-terminally) and human full-length MKNK1 (amino acids 1-424 and T344D of accession number BAA 19885.1), expressed in insect cells using baculovirus expression system and purified via glutathione sepharose affinity chromatography, was purchased from Carna Biosciences (product no 02-145) and used as enzyme. As substrate for the kinase reaction the biotinylated peptide biotin-Ahx-IKKRKLTRRKSLKG (C-terminus in amide form) was used, which can be purchased e.g. from the company Biosyntan (Berlin-Buch, Germany).
For the assay 50 nL of a 100 fold concentrated solution of the test compound in DMSO was pipetted into a black low volume 384 well microtiter plate (Greiner Bio-One, Frickenhausen, Germany), 2 μL of a solution of MKNK1 in aqueous assay buffer [50 mM HEPES pH 7.5, 5 mM MgCl2, 1.0 mM dithiothreitol, 0.005% (v/v) Nonidet-P40 (Sigma)] was added and the mixture was incubated for 15 min at 22° C. to allow pre-binding of the test compounds to the enzyme before the start of the kinase reaction. Then the kinase reaction was started by the addition of 3 μL of a solution of adenosine-tri-phosphate (ATP, 3.3 mM=>final conc. in the 5 μL assay volume is 2 mM) and substrate (0.1 μM=>final conc. in the 5 μL assay volume is 0.06 μM) in assay buffer and the resulting mixture was incubated for a reaction time of 30 min at 22° C. The concentration of MKNK1 was adjusted depending of the activity of the enzyme lot and was chosen appropriate to have the assay in the linear range, typical concentrations were in the range of 0.003 μg/mL. The reaction was stopped by the addition of 5 μL of a solution of TR-FRET detection reagents (5 nM streptavidine-XL665 [Cisbio Bioassays, Codolet, France] and 1 nM anti-ribosomal protein S6 (pSer236)-antibody from Invitrogen [#44921G] and 1 nM LANCE EU-W1024 labeled ProteinG [Perkin-Elmer, product no. AD0071]) in an aqueous EDTA-solution (100 mM EDTA, 0.1% (w/v) bovine serum albumin in 50 mM HEPES pH 7.5).
The resulting mixture was incubated for 1 h at 22° C. to allow the formation of complex between the phosphorylated biotinylated peptide and the detection reagents. Subsequently the amount of phosphorylated substrate was evaluated by measurement of the resonance energy transfer from the Eu-chelate to the streptavidine-XL. Therefore, the fluorescence emissions at 620 nm and 665 nm after excitation at 350 nm were measured in a TR-FRET reader, e.g. a Rubystar (BMG Labtechnologies, Offenburg, Germany) or a Viewlux (Perkin-Elmer). The ratio of the emissions at 665 nm and at […] was taken as the measure for the amount of phosphorylated substrate. The data were normalised (enzyme reaction without inhibitor=0% inhibition, all other assay components but no enzyme=100% inhibition).
On the technique in general: Time-resolved FRET reads energy transfer from a long-lived donor to a nearby acceptor.
In turn, `O=C(C1CCc2c(sc3ncnc(Nc4ccc5[nH]c(=O)sc5c4)c23)C1)N1CCCC1CO` (racemic) [Example 46, 6-{[(7RS)-7-{[(2RS)-2-(hydroxymethyl)pyrrolidin-1-yl]carbonyl}-5,6,7,8-tetrahydro[1]benzothieno[2,3-d]pyrimidin-4-yl]amino}-1,3-benzothiazol-2(3H)-one] had a pIC50 of 7.46.
As to `CC(=O)N1CCN(C(=O)C2CCc3c(sc4ncnc(Nc5ccc6[nH]c(=O)sc6c5)c34)C2)CC1` (racemic) [Example 47, (RS)-6-({7-[(4-acetylpiperazin-1-yl)carbonyl]-5,6,7,8-tetrahydro[1]benzothieno[2,3-d]pyrimidin-4-yl}amino)-1,3-benzothiazol-2(3H)-one], the pIC50 was 7.33.
On to `CN(CCC#N)C(=O)C1CCc2c(sc3ncnc(Nc4ccc5[nH]c(=O)sc5c4)c23)C1` (racemic) [Example 48, (RS)-N-(2-cyanoethyl)-N-methyl-4-[(2-oxo-2,3-dihydro-1,3-benzothiazol-6-yl)amino]-5,6,7,8-tetrahydro[1]benzothieno[2,3-d]pyrimidine-7-carboxamide], for which the pIC50 is 7.19.
For `CN(CC#N)C(=O)C1CCc2c(sc3ncnc(Nc4ccc5[nH]c(=O)sc5c4)c23)C1` (racemic) [Example 49, (RS)-N-(cyanomethyl)-N-methyl-4-[(2-oxo-2,3-dihydro-1,3-benzothiazol-6-yl)amino]-5,6,7,8-tetrahydro[1]benzothieno[2,3-d]pyrimidine-7-carboxamide] the value was 7.35; for `CC1CCN(C(=O)C2CCc3c(sc4ncnc(Nc5ccc6[nH]c(=O)sc6c5)c34)C2)CC1` (racemic) [Example 50, (RS)-6-({7-[(4-methylpiperidin-1-yl)carbonyl]-5,6,7,8-tetrahydro[1]benzothieno[2,3-d]pyrimidin-4-yl}amino)-1,3-benzothiazol-2(3H)-one], 7.37.
Consider `O=C(C1CCc2c(sc3ncnc(Nc4ccc5[nH]c(=O)sc5c4)c23)C1)N1CCC(O)C1` (racemic) [Example 51, 6-{[(7RS)-7-{[(3RS)-3-hydroxypyrrolidin-1-yl]carbonyl}-5,6,7,8-tetrahydro[1]benzothieno[2,3-d]pyrimidin-4-yl]amino}-1,3-benzothiazol-2(3H)-one], for which the pIC50 was 7.12.
Molecule `COCCN(CCOC)C(=O)C1CCc2c(sc3ncnc(Nc4ccc5[nH]c(=O)sc5c4)c23)C1` (racemic) [Example 52, (RS)-N,N-bis(2-methoxyethyl)-4-[(2-oxo-2,3-dihydro-1,3-benzothiazol-6-yl)amino]-5,6,7,8-tetrahydro[1]benzothieno[2,3-d]pyrimidine-7-carboxamide] gave a pIC50 of 7.52. This pIC50 lies 0.40 log units higher than the previous one.
`O=C(C1CCc2c(sc3ncnc(Nc4ccc5[nH]c(=O)sc5c4)c23)C1)N1CCCC(O)C1` (racemic) [Example 53, 6-{[(7RS)-7-{[(3RS)-3-hydroxypiperidin-1-yl]carbonyl}-5,6,7,8-tetrahydro[1]benzothieno[2,3-d]pyrimidin-4-yl]amino}-1,3-benzothiazol-2(3H)-one] showed a pIC50 of 7.28.
The molecule `CC(C)N(CCO)C(=O)C1CCc2c(sc3ncnc(Nc4ccc5[nH]c(=O)sc5c4)c23)C1` (racemic) [Example 54, (RS)-N-(2-hydroxyethyl)-N-isopropyl-4-[(2-oxo-2,3-dihydro-1,3-benzothiazol-6-yl)amino]-5,6,7,8-tetrahydro[1]benzothieno[2,3-d]pyrimidine-7-carboxamide] had a pIC50 of 7.55.
With `O=C(C1CCc2c(sc3ncnc(Nc4ccc5[nH]c(=O)sc5c4)c23)C1)N1Cc2ccccc2C1` (racemic) [Example 55, (RS)-6-{[7-(1,3-dihydro-2H-isoindol-2-ylcarbonyl)-5,6,7,8-tetrahydro[1]benzothieno[2,3-d]pyrimidin-4-yl]amino}-1,3-benzothiazol-2(3H)-one], the pIC50 is 7.14.
In the case of `CN(CC1CCCO1)C(=O)C1CCc2c(sc3ncnc(Nc4ccc5[nH]c(=O)sc5c4)c23)C1` (racemic) [Example 56, (7RS)-N-methyl-4-[(2-oxo-2,3-dihydro-1,3-benzothiazol-6-yl)amino]-N-[(2RS)-tetrahydrofuran-2-ylmethyl]-5,6,7,8-tetrahydro[1]benzothieno[2,3-d]pyrimidine-7-carboxamide], the pIC50 was 7.57. Compared with the last molecule, the pIC50 is 0.43 log units higher.
Regarding `O=C(C1CCc2c(sc3ncnc(Nc4ccc5[nH]c(=O)sc5c4)c23)C1)N1CCN(CCCO)CC1` (racemic) [Example 57, (RS)-6-[(7-{[4-(3-hydroxypropyl)piperazin-1-yl]carbonyl}-5,6,7,8-tetrahydro[1]benzothieno[2,3-d]pyrimidin-4-yl)amino]-1,3-benzothiazol-2(3H)-one], the negative logarithm of the IC50 (pIC50) was 7.41.
For the molecule `CC(C)CN(C)C(=O)C1CCc2c(sc3ncnc(Nc4ccc5[nH]c(=O)sc5c4)c23)C1` (racemic) [Example 58, (RS)-N-isobutyl-N-methyl-4-[(2-oxo-2,3-dihydro-1,3-benzothiazol-6-yl)amino]-5,6,7,8-tetrahydro[1]benzothieno[2,3-d]pyrimidine-7-carboxamide], the pIC50 was 7.20.
For the molecule `CCN(C)C(=O)C1CCc2c(sc3ncnc(Nc4ccc5[nH]c(=O)sc5c4)c23)C1` (racemic) [Example 59, (RS)-N-ethyl-N-methyl-4-[(2-oxo-2,3-dihydro-1,3-benzothiazol-6-yl)amino]-5,6,7,8-tetrahydro[1]benzothieno[2,3-d]pyrimidine-7-carboxamide], the pIC50 is 7.40.
`CCN1CCN(C(=O)C2CCc3c(sc4ncnc(Nc5ccc6[nH]c(=O)sc6c5)c34)C2)CC1` (racemic) [Example 60, (RS)-6-({7-[(4-ethylpiperazin-1-yl)carbonyl]-5,6,7,8-tetrahydro[1]benzothieno[2,3-d]pyrimidin-4-yl}amino)-1,3-benzothiazol-2(3H)-one] showed a negative-log IC50 (pIC50) of 7.44.
On to `CC(=O)N(C)C1CCN(C(=O)C2CCc3c(sc4ncnc(Nc5ccc6[nH]c(=O)sc6c5)c34)C2)C1` (racemic) [Example 61, N-methyl-N-[(3RS)-1-({(7RS)-4-[(2-oxo-2,3-dihydro-1,3-benzothiazol-6-yl)amino]-5,6,7,8-tetrahydro[1]benzothieno[2,3-d]pyrimidin-7-yl}carbonyl)pyrrolidin-3-yl]acetamide], for which the pIC50 was 7.49.
Take `CN(C)C(=O)CN(C)C(=O)C1CCc2c(sc3ncnc(Nc4ccc5[nH]c(=O)sc5c4)c23)C1` (racemic) [Example 62, (RS)-N-[2-(dimethylamino)-2-oxoethyl]-N-methyl-4-[(2-oxo-2,3-dihydro-1,3-benzothiazol-6-yl)amino]-5,6,7,8-tetrahydro[1]benzothieno[2,3-d]pyrimidine-7-carboxamide]: the pIC50 was 7.40. This pIC50 and that of the molecule before are within 0.2 log units of each other.
For `CCN(CCC#N)C(=O)C1CCc2c(sc3ncnc(Nc4ccc5[nH]c(=O)sc5c4)c23)C1` (racemic) [Example 63, (RS)-N-(2-cyanoethyl)-N-ethyl-4-[(2-oxo-2,3-dihydro-1,3-benzothiazol-6-yl)amino]-5,6,7,8-tetrahydro[1]benzothieno[2,3-d]pyrimidine-7-carboxamide], the pIC50 is 7.42.
Molecule `O=C(C1CCc2c(sc3ncnc(Nc4ccc5[nH]c(=O)sc5c4)c23)C1)N1CCN2CCCCC2C1` (racemic) [Example 64, 6-({(7RS)-7-[(9aRS)-octahydro-2H-pyrido[1,2-a]pyrazin-2-ylcarbonyl]-5,6,7,8-tetrahydro[1]benzothieno[2,3-d]pyrimidin-4-yl}amino)-1,3-benzothiazol-2(3H)-one] showed a pIC50 of 7.57. This pIC50 and that of the molecule before are within 0.2 log units of each other.
The molecule `O=C(C1CCc2c(sc3ncnc(Nc4ccc5[nH]c(=O)sc5c4)c23)C1)N1CCCC(F)C1` (racemic) [Example 65, 6-{[(7RS)-7-{[(3RS)-3-fluoropiperidin-1-yl]carbonyl}-5,6,7,8-tetrahydro[1]benzothieno[2,3-d]pyrimidin-4-yl]amino}-1,3-benzothiazol-2(3H)-one] had a pIC50 of 7.09.
The molecule `CN(CCCCO)C(=O)C1CCc2c(sc3ncnc(Nc4ccc5[nH]c(=O)sc5c4)c23)C1` (racemic) [Example 66, (RS)-N-(4-hydroxybutyl)-N-methyl-4-[(2-oxo-2,3-dihydro-1,3-benzothiazol-6-yl)amino]-5,6,7,8-tetrahydro[1]benzothieno[2,3-d]pyrimidine-7-carboxamide] had a pIC50 of 7.47.
